# Laboratory results: patent US10406239B2, “Water-soluble docetaxel anticancer drug compound and preparation method and use thereof” (NANJING YOUYI MEDICAL TECHNOLOGY CO., LTD, priority 2015, dated 2019)
# Marks after values point to notes of the source that are not given here.
# Experiments:
# [1] = tested on: A549 human lung cancer xenografts; test: Growth inhibition on A549 human lung cancer xenografts in nude mice; type: in vivo, BALB/c nude mice; conditions: for Tumor inhibition rate: by tumor weight
# Protocol: (§1) The dose volume was 0.4 ml per 20 g, that is, the dose was 96 mg/kg. Then, the solution was diluted to other desired concentrations with 0.9% sodium chloride solution.
# (§2) Docetaxel injection, manufactured by Jiangsu Hengrui Pharmaceutical Co., Ltd., lot number: 15011215, specification: 0.5 ml: 20 mg. Formulation method: during use, 20 mg of docetaxel injection of the above specification was added to 1.5 ml of a solvent for the docetaxel injection to give a concentration of 10 mg/ml, and then fully diluted with saline to 1 mg/ml. The dose volume was 0.2 ml per 20 g, that is, the dose was 10 mg/kg.
# (§3) BALB/c nude mice, provided by Changzhou Kavens Laboratory Animal Co., Ltd. (Experimental Animal Production License: SOCK (Su) 2011-0003), age: 35-40 days, weight: 18-24 g, female.
# A549 human lung cancer xenografts in nude mice was established by inoculating human lung cancer A549 cell line subcutaneously to the axillary fossa of nude mice in an amount of 2*10^6 cells/animal.
# (§4) Human lung cancer A549 cell line in logarithmic growth phase was prepared into a cell suspension of 1×10^8 cells/ml under aseptic conditions and subcutaneously inoculated to the right axillary fossa of nude mice in a volume of 0.1 ml. The size of the xenograft in the nude mice was measured with a vernier caliper. After the xenografts grew to 100-300 mm^3, the animals were randomly grouped. The anti-tumor effect of the test agents was dynamically observed by measuring the size of the xenografts. The size of the xenografts was measured once every 3 days. The dose volume was 0.4 ml/20 g. Twenty-one days later, the mice were sacrificed and the tumors were surgically excised and weighed. The tumor volume (TV) is calculated by a formula below: TV=½×a×b^2
# The relative tumor volume (RTV) is calculated based on the measurements by a formula: RTV=Vt/V0, where V0 is the measured tumor volume upon being caged (i.e., d0) and Vt is the tumor volume at each measurement. The evaluation index of the anti-tumor activity is relative tumor growth rate T/C (%), which is calculated by a formula below: […]
# in which TRTV is the RTV of the treatment group; and CRTV is the RTV of the negative control group.
# The tumor inhibition rate is calculated by a formula below: […]
# Tweight is the average tumor weight of the treatment group; and Cweight is the average tumor weight of the negative control group.
# [2] = Effect on body weight of nude mice with A549 human lung cancer xenografts; type: in vivo, BALB/c nude mice
# Protocol: as §1, §2, §3, §4
# [3] = background statement; cited from earlier work
# [4] = background statement; cited from earlier work; remark: listed apart in the source
# [5] = Docetaxel 10 mg/kg, tail vein, once every 3 days, 7 doses, 21 d
# [6] = Docetaxel 10 mg/kg, tail vein, once every 3 days, 3 d
# [7] = Docetaxel 10 mg/kg, tail vein, once every 3 days, 6 d
# [8] = Docetaxel 10 mg/kg, tail vein, once every 3 days, 9 d
# [9] = Docetaxel 10 mg/kg, tail vein, once every 3 days, 12 d
# [10] = Docetaxel 10 mg/kg, tail vein, once every 3 days, 15 d
# [11] = Docetaxel 10 mg/kg, tail vein, once every 3 days, 18 d
structure (smiles),measurement,setting,value
CC(=O)O[C@@]12CO[C@@H]1C[C@H](O)[C@@]1(C)C(=O)[C@H](O)C3=C(C)[C@@H](OC(=O)[C@H](O)[C@@H](NC(=O)OC(C)(C)C)c4ccccc4)C[C@@](O)([C@@H](OC(=O)c4ccccc4)[C@H]21)C3(C)C [Docetaxel],Tumor volume,"[1]; Docetaxel 10 mg/kg group, 0 d (baseline)",100.58 ± 20.87 mm^3
same,Tumor inhibition rate,"[1]; Docetaxel 10 mg/kg, once every 3 days, 7 doses",72.16%
same,Tumor inhibition rate,"[1]; Docetaxel 10 mg/kg, once every 3 days, 7 doses, listed as docetaxel",72.16%
same,Tumor weight,"[1]; Docetaxel 10 mg/kg, once every 3 days, tumors excised after 21 days",0.33 ± 0.15 g
same,RTV (relative tumor volume),[1]; [5],2.40 ± 0.99
same,T/C (relative tumor growth rate),[1]; [5],21.15%
same,Tumor volume,[1]; [5],226.65 ± 56.45* mm^3
same,T/C (relative tumor growth rate),"[1]; Docetaxel 10 mg/kg, tail vein, once every 3 days, 7 doses, 21 d, listed as docetaxel",21.15%
same,RTV (relative tumor volume),[1]; [6],1.62 ± 0.37
same,T/C (relative tumor growth rate),[1]; [6],56.09%
same,Tumor volume,[1]; [6],157.30 ± 26.48** mm^3
same,RTV (relative tumor volume),[1]; [7],1.49 ± 0.39
same,T/C (relative tumor growth rate),[1]; [7],41.39%
same,Tumor volume,[1]; [7],147.47 ± 41.99** mm^3
same,RTV (relative tumor volume),[1]; [8],1.59 ± 0.47
same,T/C (relative tumor growth rate),[1]; [8],34.23%
same,Tumor volume,[1]; [8],155.55 ± 44.12** mm^3
same,RTV (relative tumor volume),[1]; [9],2.15 ± 0.81
same,T/C (relative tumor growth rate),[1]; [9],33.77%
same,Tumor volume,[1]; [9],208.93 ± 68.26** mm^3
same,RTV (relative tumor volume),[1]; [10],2.24 ± 0.43
same,T/C (relative tumor growth rate),[1]; [10],26.80%
same,Tumor volume,[1]; [10],224.22 ± 57.63** mm^3
same,RTV (relative tumor volume),[1]; [11],1.87 ± 0.28
same,T/C (relative tumor growth rate),[1]; [11],19.30%
same,Tumor volume,[1]; [11],186.80 ± 42.03** mm^3
same,effect on the body weight of the experimental mice (in words),"[2]; 10 mg/kg docetaxel, P<0.01",Extremely significant effect
same,Initial body weight,"[2]; Docetaxel 10 mg/kg group, before dosing",22.50 ± 1.26 g
same,Final body weight,"[2]; Docetaxel 10 mg/kg, once every 3 days, end of study (21 days)",15.17 ± 0.90 g
same,oral bioavailability,[3],less than 8%
same,intracellular concentration higher than that of paclitaxel,[4],3 times
